Reference: patent US12049455B2, “Compositions and methods for the prevention and/or treatment of mitochondrial disease, including Friedreich's ataxia” (Stealth BioTherapeutics Inc., priority 2019, dated 2024)

Experiments:
[1] = test system: Nrf-2; assay: Nrf-2 Activation Assay (Nrf-2 Assay); assay type: cell-based, human; conditions: 1 μM compound, 24 hours
Description: This assay was developed internally and was designed to determine if the novel test compounds disclosed herein active Nrf-2 and thereby promote resolution of inflammation by the mechanism believed to be responsible for the activity of omaveloxolone.
Briefly, GM03665 Friedreich Ataxia patient fibroblasts were grown in 12 Well Plates (TC Cell+F) (Sarstedt, Numbrecht Germany), at a density of […] in DMEM/F12 (Gibco, ThermoFisher Scientific, Waltham, MA, USA) cell media supplemented with 10% FBS and 1% Pen/Strep. Cells were left to rest overnight at 37° C. in a humidified atmosphere with 5% CO2 to allow attachment of the cells to the culture plate. Before continuing assay visual inspection of each well was done by light microscopy to detect any possible bacterial and fungal contamination. […] After incubation, cell media was removed and total RNA from the cells was isolated using E.Z.N.A.® Total RNA Kit I (Omega Bio-tek, Norcross, Georgia, USA) spin columns, and first-strand cDNA synthesis was carried out using a High Capacity cDNA Reverse Transcription Kit (Applied Biosystems™, Foster City, CA) following the manufacturer's instructions. qPCR analysis of gene expression was performed by mixing SYBR® Green Master Mix (Applied Biosystems™) with synthesized cDNA and forward and reverse primers. […] (60 cycles), and 95° C. for 60 seconds, followed by melt curve analysis at 72-95° C., 0.3° C./sec. The relative expression levels for each gene were calculated with the ΔΔCt method and normalized to the expression of REEP5 and SNRPD3 genes.

[2] = test system: frataxin deficient fibroblasts (GM03665); assay type: cell-based; conditions: summary of Table 7
[3] = test system: GM03665 cells; assay: RSL3 Toxicity Assay (RSL3 Assay); assay type: cell-based, human; conditions: protection of Friedreich's ataxia fibroblasts from RSL3
Description: In brief, GM03665 cells (Coriell Institute) were seeded in 96-well plates (Sarstedt) in DMEM cell culture media containing 10% Fetal Bovine serum and 1% Penicillin-Streptomycin (Pen-Strep) antibiotic mix at the amount of 2×10^4/mL (100 μL or 2×10^3 cells per well). Cells were left to rest overnight at 37° C. in a humidified atmosphere with 5% CO2 to allow attachment of the cells to the culture plate. Test compounds were prepared as DMSO stocks (10 mM) and were serially diluted in cell culture media to obtain 2× working solutions. Cell media was discarded and replaced by 50 μL of test compound solutions or cell media with vehicle for control wells. Within 15 minutes, 2× working solution (4 μM) of 1S,3R-RSL3 (CAS #1219810-16-8, Sigma-Aldrich) (diluted from 5 mM DMSO stock in cell culture media) was added. Final reaction volume was 100 μL and final DMSO concentration in reaction was kept below 0.2% (v/v) and equal in all wells. Final RSL3 concentration was 2 μM and test compound final concentrations in reaction were up to 1000 nM. After 24 hours of incubation cell viability was assessed by MTT test. MTT (Sigma-Aldrich) solution 1 mg/mL in 1×PBS (pH=7,4) was prepared 1 hour before the assay and filtered through Filtropur S 0.2 filters (Sarstedt). […] Absorption at 570 and 650 nm was measured using Hidex Sense microplate reader.

[4] = test system: HepG2 cells; assay: Rotenone Oxygraph Assay (high-resolution respirometry of intact HepG2 cells); assay type: cell-based, human; conditions: for active in Complex I by-pass (in words): summary of Table 7 (Rotenone ATP and Rotenone Oxygraph assays)
Description: The Oxygraph-2 k (O2k, OROBOROS INSTRUMENTS, Austria) was used for measurements of respiration of intact cells. The respirometry was performed in Dulbecco's Modified Eagle Medium (DMEM) high glucose without supplements. All experiments were performed at 37° C.
HepG2 cells (ATCC collection code HB-8065™) were cultured in 10 cm^2 culture dishes in DMEM high glucose medium supplemented with 10% fetal bovine serum (FBS) and 100 units/mL penicillin and 100 μg/mL streptomycin until approximately 90% confluence was reached. Immediately prior to performing the respirometric assay, the cells were washed with media without FBS, trypsinized and resuspended in DMEM high glucose without FBS.
The final concentration of intact cells in the O2k-chamber was 0.5·10^6/mL. After stabilization of respiration, the Complex I inhibitor, rotenone, at 1 μM final concentration was added to inhibit electron flux via Complex I. Then, compound to be tested was added at 10 μM final concentration, and the change in respiration rate of intact cells was monitored.

Compound | activation of Nrf-2 responsive genes (in words, FIG. 7) [1] | activity in the BSO assay (in words) [2] | activity in the RSL3 Assay (in words) [3] | active in Complex I by-pass (in words) [4] | Nrf-2 Assay (Table 7) ([1]; GM03665 fibroblasts, qPCR of Nrf-2 responsive genes) | Rotenone Oxygraph Assay % Increase (Table 7) ([4]; intact HepG2 cells, rotenone 1 μM, compound 10 μM) | Percent increase in ATP (Rotenone Oxygraph Assay, Table 4) ([4]; intact HepG2 cells, rotenone 1 μM, compound 10 μM, change in respiration rate)
CC1=C(C)C(=O)C(CC[C@](C)(O)CC/C=C(\C)CC/C=C(\C)CCC=C2COC2)=C(C)C1=O [Compound E, 2-((R,6E,10E)-3-hydroxy-3,7,11-trimethyl-14-(oxetan-3-ylidene)tetradeca-6,10-dien-1-yl)-3,5,6-trimethylcyclohexa-2,5-diene-1,4-dione] | do not activate |  |  |  |  |  | 
COC1=C(OC)C(=O)C(CCCCCCCCCCO)=C(C)C1=O [Idebenone, reference compound] |  | very weakly active/borderline inactive |  |  |  |  | 
CC1(C)CC[C@]2(NC(=O)C(C)(F)F)CC[C@]3(C)[C@H](C(=O)C=C4[C@@]5(C)C=C(C#N)C(=O)C(C)(C)[C@@H]5CC[C@]43C)[C@@H]2C1 [Omaveloxolone, reference compound] | positive |  | completely inactive | are not |  |  | 
(R)-2-(3-hydroxy-3-methyl-4-(3-(trimethylsilyl)propoxy)butyl)-3,5,6-trimethylcyclohexa-2,5-diene-1,4-dione [Compound M] | do not activate | active | active | active | Inactive | 56.6 +/− 11.3% | 56.6 +/− 11.3%
